Activity calls are given as the source filed them.
Molecular target: T1, Calpain-2 catalytic subunit (Sus scrofa, UniProt P43367)
T1 sequence (P43367 whole entry): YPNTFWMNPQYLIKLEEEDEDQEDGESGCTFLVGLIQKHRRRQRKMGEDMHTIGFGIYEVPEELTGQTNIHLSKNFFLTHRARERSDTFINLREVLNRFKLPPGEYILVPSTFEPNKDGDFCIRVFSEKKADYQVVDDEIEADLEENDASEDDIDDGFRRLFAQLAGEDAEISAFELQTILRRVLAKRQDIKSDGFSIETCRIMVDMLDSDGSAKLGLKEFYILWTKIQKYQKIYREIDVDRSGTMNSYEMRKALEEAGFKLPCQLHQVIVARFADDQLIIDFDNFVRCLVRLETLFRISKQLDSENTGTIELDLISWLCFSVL
Experiment: pig calpain II inhibitor potency, dose response, biochemical, fluorogenic peptide substrate (AID 1420)
Type: functional
Details: not given
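Throughout, for AC50: cells exposed to compound for roughly 70 hours or longer before luminescence read.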

For Cc1ccc2cc(CCNC(=O)c3cc4ccccc4o3)c(O)nc2c1C, which IC50 is on record?
The IC50 was > 50 µM (not active).

With CC(C)Cn1c(S)nnc1-c1csc(C(C)C)c1 as the compound, how does the IC50 read?
Its IC50 is 10.8 µM (active).

For CSc1nc(Oc2ccccc2)c2sccc2n1, which IC50 is on record?
Its IC50 is < 0.4 µM (not active).

With COc1ccc(-c2cc(C(=O)N3CCCc4ccccc43)no2)cc1 as the compound, how does the IC50 read?
Its IC50 is 13.4 µM (not active).

For CCOc1ccc(CC(=O)OCn2nnc3ccccc3c2=O)cc1, which IC50 is on record?
Its IC50 is 24.4 µM (not active).

Which IC50 does the source give for CCc1ccc(NC(=O)c2noc(C(C)C)c2[N+](=O)[O-])cc1 here?
The IC50 was 6.83 µM (not active).

For CCC(C)C(NC(=O)c1ccc(Cl)cc1)C(=O)Nc1cccnc1 (configuration not stated), which IC50 is on record?
Its IC50 is 7.69 µM (not active).

Which IC50 does the source give for O=C(Nc1cccc2ccccc12)/C(Cl)=C/c1ccccc1 here?
The IC50 was 8.93 µM (not active).

For O=C(CCCCCN1C(=O)c2ccccc2C1=O)Nc1ccc(F)cc1, which IC50 is on record?
The IC50 was 11.1 µM (not active).

Which IC50 does the source give for O=C1OC(c2cccc([N+](=O)[O-])c2)C2(CCCC2)C(=O)C12CCCCC2 (configuration not stated) here?
Its IC50 is > 50 µM (not active).

System: not listed separately
Experiment: HEp-2 cell cytotoxicity, dose response, cytotoxicity control for RSV inhibitor project, HTS (AID 2410)
Type: functional
Details: human respiratory syncytial virus

With Oc1ccccc1N1CCN(c2ncnc3sc(-c4ccccc4)cc23)CC1 as the compound, how does the CC50 read?
The CC50 was 14.2 µM (active).

System: not listed separately
Experiment: Luminescence Cell-Based Dose Confirmation HTS to Identify Inhibitors of Platelet Dense Granule Release. [Related pubchem assays: 1663 (Primary HTS), 1678 (Summary of Project)]
Type: functional
Details: not given

With Oc1ccccc1N1CCN(c2ncnc3sc(-c4ccccc4)cc23)CC1 as the compound, how does the EC50 read?
The EC50 was > 112 µM (not active).

Which EC50 does the source give for O=C(O)C1C2C=CC(C2)C1C(=O)NCc1ccco1 (configuration not stated) here?
Its EC50 is > 112 µM (not active).

For O=C(NCCSc1c[nH]c2ccccc12)c1c(F)cccc1F, which EC50 is on record?
Its EC50 is > 112 µM (not active).

For CC(=O)c1ccc(NC(=O)c2cc[nH]n2)cc1, which EC50 is on record?
Its EC50 is 7.07 µM (active).

Which EC50 does the source give for COn1c(C)c(C(C)=O)c2c3nonc3ccc21 here?
Its EC50 is > 112 µM (not active).

For Cc1ccccc1-c1nc(CS(=O)(=O)CC(=O)N2CCc3ccccc32)c(C)o1, which EC50 is on record?
The EC50 was > 112 µM (not active).

With CCCc1ccc(Oc2cc(N3CCOCC3)nc(-c3ccccc3)n2)cc1 as the compound, how does the EC50 read?
The EC50 was > 112 µM (not active).

With CCn1c(Cc2cccn2C)nnc1SCC(=O)c1ccc(C)cc1 as the compound, how does the EC50 read?
Its EC50 is > 112 µM (not active).

With COc1ccc(/C=C(/NC(=O)c2ccco2)C(=O)N2CCCCCC2)cc1OC as the compound, how does the EC50 read?
Its EC50 is > 112 µM (not active).

For Cc1ncc(CN2CCC(N3CCC(C(=O)N4CCCC4)CC3)CC2)s1, which EC50 is on record?
Its EC50 is > 112 µM (not active).

For COc1ccc(-c2csc(CCn3nc(C)cc3C)n2)cc1OC, which EC50 is on record?
Its EC50 is > 112 µM (not active).

For CCC(=O)NCCc1nc2ccccc2n1Cc1ccc(C)cc1, which EC50 is on record?
The EC50 was > 112 µM (not active).

Molecular target: Fatty acid synthase (Homo sapiens, UniProt P49327)
Experiment: FAS thioesterase domain inhibitors, dose response, biochemical, kinetic fluorescence intensity (AID 624326);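 note: rate of fluorescence rise from hydrolysis of a fluorogenic O-methyl fluorescein ester substrate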
Type: functional
Details: not given

Chain of Fatty acid synthase (P49327 whole entry, the tested form may be a part): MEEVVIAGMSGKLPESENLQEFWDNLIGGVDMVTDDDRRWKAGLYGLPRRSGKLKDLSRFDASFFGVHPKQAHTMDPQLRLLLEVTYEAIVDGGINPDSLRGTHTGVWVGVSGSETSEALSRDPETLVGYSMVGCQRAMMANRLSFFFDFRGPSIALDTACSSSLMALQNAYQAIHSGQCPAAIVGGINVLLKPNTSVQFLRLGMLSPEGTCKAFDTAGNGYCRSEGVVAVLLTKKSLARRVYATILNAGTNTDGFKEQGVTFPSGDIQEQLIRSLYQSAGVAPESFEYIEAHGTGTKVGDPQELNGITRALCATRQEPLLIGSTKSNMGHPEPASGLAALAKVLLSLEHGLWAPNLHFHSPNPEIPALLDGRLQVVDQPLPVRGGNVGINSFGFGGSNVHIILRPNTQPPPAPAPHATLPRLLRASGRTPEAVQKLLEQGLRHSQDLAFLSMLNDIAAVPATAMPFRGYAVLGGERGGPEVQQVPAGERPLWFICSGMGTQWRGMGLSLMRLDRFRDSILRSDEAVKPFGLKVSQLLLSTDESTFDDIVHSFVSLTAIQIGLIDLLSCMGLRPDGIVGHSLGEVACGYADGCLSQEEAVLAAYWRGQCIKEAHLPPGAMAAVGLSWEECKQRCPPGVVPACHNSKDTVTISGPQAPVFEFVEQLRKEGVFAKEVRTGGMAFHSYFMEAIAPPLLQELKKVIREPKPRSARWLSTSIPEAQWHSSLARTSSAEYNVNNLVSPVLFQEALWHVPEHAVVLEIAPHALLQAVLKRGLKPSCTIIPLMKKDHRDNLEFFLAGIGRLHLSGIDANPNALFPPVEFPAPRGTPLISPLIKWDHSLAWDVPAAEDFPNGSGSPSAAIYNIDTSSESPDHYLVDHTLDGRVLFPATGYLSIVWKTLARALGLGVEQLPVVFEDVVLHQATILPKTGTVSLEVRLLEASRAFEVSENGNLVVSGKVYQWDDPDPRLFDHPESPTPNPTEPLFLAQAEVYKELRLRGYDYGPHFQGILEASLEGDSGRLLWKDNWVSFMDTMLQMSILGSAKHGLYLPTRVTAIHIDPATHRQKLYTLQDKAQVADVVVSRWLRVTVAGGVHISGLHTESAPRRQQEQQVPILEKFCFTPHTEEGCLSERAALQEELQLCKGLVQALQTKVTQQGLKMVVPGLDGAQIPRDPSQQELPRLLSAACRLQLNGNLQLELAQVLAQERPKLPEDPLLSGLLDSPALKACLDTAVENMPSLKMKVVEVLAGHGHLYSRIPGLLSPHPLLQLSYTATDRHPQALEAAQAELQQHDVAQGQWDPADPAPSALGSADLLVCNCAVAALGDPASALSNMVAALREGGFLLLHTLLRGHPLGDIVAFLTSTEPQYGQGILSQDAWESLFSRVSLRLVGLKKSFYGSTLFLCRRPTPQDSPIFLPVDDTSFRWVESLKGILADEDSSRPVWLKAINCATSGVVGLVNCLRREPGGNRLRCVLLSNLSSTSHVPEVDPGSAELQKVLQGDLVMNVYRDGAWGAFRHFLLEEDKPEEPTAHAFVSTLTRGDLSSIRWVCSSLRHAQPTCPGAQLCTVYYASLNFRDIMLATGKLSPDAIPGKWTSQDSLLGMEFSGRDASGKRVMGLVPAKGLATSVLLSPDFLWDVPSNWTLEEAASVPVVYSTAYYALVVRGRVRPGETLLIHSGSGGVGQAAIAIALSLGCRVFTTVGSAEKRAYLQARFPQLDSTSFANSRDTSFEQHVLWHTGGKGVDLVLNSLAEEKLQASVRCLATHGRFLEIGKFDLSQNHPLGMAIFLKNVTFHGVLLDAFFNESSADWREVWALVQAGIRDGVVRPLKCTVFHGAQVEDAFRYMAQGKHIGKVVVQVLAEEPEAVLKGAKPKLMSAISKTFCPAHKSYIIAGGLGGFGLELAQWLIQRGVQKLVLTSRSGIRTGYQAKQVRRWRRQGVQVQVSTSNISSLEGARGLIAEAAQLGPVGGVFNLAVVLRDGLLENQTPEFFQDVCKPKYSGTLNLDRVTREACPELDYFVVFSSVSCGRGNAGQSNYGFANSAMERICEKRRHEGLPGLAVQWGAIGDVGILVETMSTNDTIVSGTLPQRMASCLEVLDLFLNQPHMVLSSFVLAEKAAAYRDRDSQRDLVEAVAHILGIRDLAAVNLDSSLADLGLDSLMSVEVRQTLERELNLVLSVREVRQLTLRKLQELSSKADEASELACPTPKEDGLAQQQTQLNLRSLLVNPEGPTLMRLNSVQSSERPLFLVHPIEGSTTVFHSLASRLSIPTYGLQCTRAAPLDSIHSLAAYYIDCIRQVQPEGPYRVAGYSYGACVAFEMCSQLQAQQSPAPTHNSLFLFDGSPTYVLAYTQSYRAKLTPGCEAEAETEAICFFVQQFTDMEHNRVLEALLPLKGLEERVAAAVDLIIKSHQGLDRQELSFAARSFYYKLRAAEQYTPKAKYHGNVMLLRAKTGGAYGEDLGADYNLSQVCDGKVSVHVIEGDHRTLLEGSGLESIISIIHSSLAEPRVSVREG

For CNS(=O)(=O)c1ccc2c(c1)C(=O)c1cc(S(=O)(=O)NC)ccc1CC2, which IC50 is on record?
Its IC50 is 0.865 µM (active).

System: not listed separately
Experiment: Luminescence Cell-Based Dose Retest to Confirm Inhibitors of Cancer Stem Cells. [Related pubchem assays (depositor defined):AID2717, AID2721]
Type: functional
Details: Homo sapiens

Which AC50 does the source give for Oc1ccccc1N1CCN(c2ncnc3sc(-c4ccccc4)cc23)CC1 here?
The AC50 was 3.87 µM (active).

Molecular target: Luciferin 4-monooxygenase (Photinus pyralis, UniProt P08659)
Experiment: firefly luciferase enzyme inhibitors, dose response, biochemical, luminescence (AID 1891)
Details: not given

Chain of Luciferin 4-monooxygenase (P08659 whole entry): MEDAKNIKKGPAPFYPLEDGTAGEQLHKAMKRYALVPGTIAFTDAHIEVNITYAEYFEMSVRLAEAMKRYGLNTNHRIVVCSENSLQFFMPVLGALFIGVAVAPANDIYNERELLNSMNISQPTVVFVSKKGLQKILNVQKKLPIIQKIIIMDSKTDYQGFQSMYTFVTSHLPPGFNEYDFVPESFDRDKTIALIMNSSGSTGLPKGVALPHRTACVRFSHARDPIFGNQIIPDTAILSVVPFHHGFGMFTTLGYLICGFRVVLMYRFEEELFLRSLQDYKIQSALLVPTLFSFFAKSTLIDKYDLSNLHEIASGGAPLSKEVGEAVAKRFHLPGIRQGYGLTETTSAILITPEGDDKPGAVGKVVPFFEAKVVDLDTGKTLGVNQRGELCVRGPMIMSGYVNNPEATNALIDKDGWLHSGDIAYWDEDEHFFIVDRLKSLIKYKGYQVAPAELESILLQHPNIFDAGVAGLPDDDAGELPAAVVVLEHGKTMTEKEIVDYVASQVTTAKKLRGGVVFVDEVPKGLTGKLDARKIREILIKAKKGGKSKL

For Oc1ccccc1N1CCN(c2ncnc3sc(-c4ccccc4)cc23)CC1, which EC50 is on record?
Its EC50 is > 112 µM (not active).

With O=C(O)C1C2C=CC(C2)C1C(=O)NCc1ccco1 (configuration not stated) as the compound, how does the EC50 read?
The EC50 was > 112 µM (not active).

For O=C(NCCSc1c[nH]c2ccccc12)c1c(F)cccc1F, which EC50 is on record?
Its EC50 is > 112 µM (not active).

Which EC50 does the source give for CC(=O)c1ccc(NC(=O)c2cc[nH]n2)cc1 here?
Its EC50 is 31.4 µM (active).

With COn1c(C)c(C(C)=O)c2c3nonc3ccc21 as the compound, how does the EC50 read?
Its EC50 is > 112 µM (not active).

For Cc1ccccc1-c1nc(CS(=O)(=O)CC(=O)N2CCc3ccccc32)c(C)o1, which EC50 is on record?
Its EC50 is > 112 µM (not active).

Which EC50 does the source give for CCCc1ccc(Oc2cc(N3CCOCC3)nc(-c3ccccc3)n2)cc1 here?
The EC50 was > 112 µM (not active).

For CCn1c(Cc2cccn2C)nnc1SCC(=O)c1ccc(C)cc1, which EC50 is on record?
Its EC50 is > 112 µM (not active).

For COc1ccc(/C=C(/NC(=O)c2ccco2)C(=O)N2CCCCCC2)cc1OC, which EC50 is on record?
The EC50 was > 112 µM (not active).

With Cc1ncc(CN2CCC(N3CCC(C(=O)N4CCCC4)CC3)CC2)s1 as the compound, how does the EC50 read?
The EC50 was > 112 µM (not active).

Which EC50 does the source give for COc1ccc(-c2csc(CCn3nc(C)cc3C)n2)cc1OC here?
Its EC50 is > 112 µM (not active).

Which EC50 does the source give for CCC(=O)NCCc1nc2ccccc2n1Cc1ccc(C)cc1 here?
The EC50 was > 112 µM (not active).
